Source: patent publication US20180042227A1, “SYNERGISTIC ANTIMICROBIAL COMPOSITION” (Dow Global Technologies LLC, priority 2015, published 2018)

How the values were obtained:
Format in all cases: cell-based
[1] = system: Pseudomonas aeruginosa DSM # 939; assay: Minimum Inhibitory Concentration (MIC) test and synergy index, Pseudomonas aeruginosa; conditions: alone or in the mixture, TSB pH 7.3, 30° C. for 2 days
Description: (§1) The synergism of the biocides combination of the present invention was determined using the method described by Kull, F. C., et. al in Applied Microbiology 9:538-541 (1961). […] The Minimum Inhibitory Test (MIC) is designed to evaluate the lowest concentration of a biocide, biocide blend or biocide combination to prevent bacteria, yeast, or fungi from growing in a defined broth. After incubation, the samples are rated based on visually detectable turbidity. This test was carried out with a dilution factor of 1.5 for the biocides. • 1. Test samples were prepared in equal volumes in transparent containers. The biocide dilutions were done in tryptic soy broth (TSB) at pH of 7.3 for the bacteria and in malt extract broth (MEB) at pH 5.4 for the fungi strain. • 16 samples per biocide product and species to be tested were prepared in duplicates by serial dilution with a dilution factor of 1.5. • Per strain of micro-organism two samples not containing any biocide was added as a control. • 2. […] After incubation for 1 day at 30° C. the strains were harvested with buffer pH 7.3. • The concentration of cells was assessed by using a standard viable count technique. • For the inoculum, dilutions were made in buffer pH 7.3. • Yeast culture: [table] • 4. Reading was done visually by a growth/no growth rating. […]

[2] = system: Staphylococcus Aureus DSM # 799; assay: Minimum Inhibitory Concentration (MIC) test and synergy index, Staphylococcus aureus; conditions: alone or in the mixture, TSB pH 7.3, 30° C. for 2 days
Description: as §1

[3] = system: Candida Albicans DSM # 1386; assay: Minimum Inhibitory Concentration (MIC) test and synergy index, Candida albicans; conditions: alone or in the mixture, MEB pH 5.4, 28° C. for 2 days
Description: The synergism of the biocides combination of the present invention was determined using the method described by Kull, F. C., et. al in Applied Microbiology 9:538-541 (1961). […] The Minimum Inhibitory Test (MIC) is designed to evaluate the lowest concentration of a biocide, biocide blend or biocide combination to prevent bacteria, yeast, or fungi from growing in a defined broth. After incubation, the samples are rated based on visually detectable turbidity. This test was carried out with a dilution factor of 1.5 for the biocides. • 1. Test samples were prepared in equal volumes in transparent containers. The biocide dilutions were done in tryptic soy broth (TSB) at pH of 7.3 for the bacteria and in malt extract broth (MEB) at pH 5.4 for the fungi strain. • 16 samples per biocide product and species to be tested were prepared in duplicates by serial dilution with a dilution factor of 1.5. • Per strain of micro-organism two samples not containing any biocide was added as a control. • 2. […] Reading was done visually by a growth/no growth rating. […]

SMILES | Minimum Concentration (active ppm) to Inhibit Growth, DTBMA ([1]; DTBMA concentration) | Minimum Concentration (active ppm) to Inhibit Growth, DTBMA ([2]; DTBMA concentration) | Minimum Concentration (active ppm) to Inhibit Growth, DTBMA ([3]; DTBMA concentration) | Minimum Concentration (active ppm) to Inhibit Growth, Diamine ([1]; Diamine concentration) | Minimum Concentration (active ppm) to Inhibit Growth, Diamine ([2]; Diamine concentration) | Minimum Concentration (active ppm) to Inhibit Growth, Diamine ([3]; Diamine concentration)
CNC(=O)c1ccccc1SSc1ccccc1C(=O)NC [DTBMA alone, dithio-2,2′-bis-benzmethylamide] | 222 active ppm | 20 active ppm | 148 active ppm |  |  | 
CCCCCCCCCCCCN(CCCN)CCCN [Diamine alone, N-(3-Aminopropyl)-N-dodecylpropane-1,3-diamine] |  |  |  | 148 active ppm | 44 active ppm | 148 active ppm
